Results taken from ChEMBL document CHEMBL4813909, “Heterocyclic Diamidine DNA Ligands as HOXA9 Transcription Factor Inhibitors: Design, Molecular Evaluation, and Cellular Consequences in a HOXA9-Dependant Leukemia Cell Model” (J Med Chem, 2019).
The source made the active and inactive calls. The rule behind the calls is not given here.

Key:
[1] = Cytotoxicity against mouse MigA9 cells harboring mouse Hoxa9 gene incubated for 72 hrs by MTS assay; assay type: functional, cell-based; details: MigA9, 72 h
HOXA9 DNA binding site [2] = experiment: Binding affinity to hairpin DNA Hoxa9-binding site 5'-biotin-CCATGATTTACCTCTGTAAATCATGG (unknown origin) by surface plasmon resonance; assay type: nucleic-acid assay
[3] = Induction of cell death in mouse MigA9 cells harboring mouse Hoxa9 gene assessed as propidium iodide-positive cells at 15 uM incubated for 24 hrs by propidium iodide staining based flow cytometry (reference value: 9.06 +/- 0.53%); assay type: functional; details: dose 15 µM; time 24 hrs
[4] = Induction of cell death in mouse MigA9 cells harboring mouse Hoxa9 gene assessed as propidium iodide-positive cells at 20 uM incubated for 24 hrs by propidium iodide staining based flow cytometry (reference value: 9.06 +/- 0.53%); assay type: functional; details: dose 20 µM; time 24 hrs
[5] = Induction of cell cycle arrest in mouse MigA9 cells harboring mouse Hoxa9 gene assessed as accumulation at sub-G1 phase at 20 uM incubated for 48 hrs by propidium iodide staining based flow cytometry (reference value: 0.76 +/- 0.1%); assay type: functional
K562 = experiment: Anticlonogenic activity in human K562 cells assessed as K562 number at 2.5 uM incubated for 10 days by Methocult-colony forming cell assay relative to control; assay type: functional; details: time 10 day
HOXA9 DNA binding site [6] = details: dose 0.5 µM
HOXA9 DNA binding site [7] = details: dose 1.0 µM
[8] = system: HOXA9 DNA binding site [UNDEFINED MUTATION]
[9] = system: HOXA9 DNA binding site [UNDEFINED MUTATION]; remark: listed apart in the source
[10] = Drug localization in nucleus of human HT-29 cells at 5 uM incubated for 16 hrs by DiOC6/propidium iodide staining based by fluorescence microscopy; assay type: ADME, subcellular; details: ht-29, 16 h
[11] = target: Homeobox protein Hox-A9 (Mus musculus) (UniProt P09631); experiment: Inhibition of HOXA9 in mouse MigA9 cells assessed as induction of nuytten-ezh2-targets-up genes by gene set enrichment analysis; assay type: cell-based
[12] = target: Homeobox protein Hox-A9 (Mus musculus) (UniProt P09631); experiment: Inhibition of HOXA9 in mouse MigA9 cells assessed as induction of takeda- targets-of-nup98- hoxa9-fusion-8d-dn genes by gene set enrichment analysis; assay type: cell-based
[13] = target: Homeobox protein Hox-A9 (Mus musculus) (UniProt P09631); experiment: Inhibition of HOXA9 in mouse MigA9 cells assessed as induction of gal-leukemic stem cell-dn genes by gene set enrichment analysis; assay type: cell-based
[14] = target: Homeobox protein Hox-A9 (Mus musculus) (UniProt P09631); experiment: Inhibition of HOXA9 in mouse MigA9 cells assessed as induction of gabriely-mir21-targets gene by gene set enrichment analysis; assay type: cell-based
[15] = target: Homeobox protein Hox-A9 (Mus musculus) (UniProt P09631); experiment: Inhibition of HOXA9 in mouse MigA9 cells assessed as downregulation of martens-tretinoin-response-dn genes by gene set enrichment analysis; assay type: cell-based
[16] = target: Homeobox protein Hox-A9 (Mus musculus) (UniProt P09631); experiment: Inhibition of HOXA9 in mouse MigA9 cells assessed as downregulation of wang-immortalised-by-hoxa9-and meis1-up genes by gene set enrichment analysis; assay type: cell-based
MigA9 [17] = experiment: Induction of ITGAM gene in mouse MigA9 cells by ingenuity pathway analysis; assay type: functional, cell-based
MigA9 [18] = experiment: Induction of RGS10 gene in mouse MigA9 cells by ingenuity pathway analysis; assay type: functional, cell-based
MigA9 [19] = experiment: Induction of TP53 gene in mouse MigA9 cells by ingenuity pathway analysis; assay type: functional, cell-based
MigA9 [20] = experiment: Induction of CD47 gene in mouse MigA9 cells by ingenuity pathway analysis; assay type: functional, cell-based
MigA9 [21] = experiment: Induction of IGLL1/IGLL5 gene in mouse MigA9 cells by ingenuity pathway analysis; assay type: functional, cell-based
MigA9 [22] = experiment: Induction of PIM1 gene in mouse MigA9 cells by ingenuity pathway analysis; assay type: functional, cell-based
MigA9 [23] = experiment: Induction of TAC4 gene in mouse MigA9 cells by ingenuity pathway analysis; assay type: functional, cell-based
MigA9 [24] = experiment: Induction of AKAP13 gene in mouse MigA9 cells by ingenuity pathway analysis; assay type: functional, cell-based
MigA9 [25] = experiment: Downregulation of ARHGEF1 gene in mouse MigA9 cells by ingenuity pathway analysis; assay type: functional, cell-based
MigA9 [26] = experiment: Downregulation of CD74 gene in mouse MigA9 cells by ingenuity pathway analysis; assay type: functional, cell-based
MigA9 [27] = experiment: Upregulation of DICER1 gene in mouse MigA9 cells by ingenuity pathway analysis; assay type: functional, cell-based
MigA9 [28] = experiment: Upregulation of DNMT3A gene in mouse MigA9 cells by ingenuity pathway analysis; assay type: functional, cell-based
MigA9 [29] = experiment: Upregulation of E2F1 gene in mouse MigA9 cells by ingenuity pathway analysis; assay type: functional, cell-based
MigA9 [30] = experiment: Downregulation of FGF7 gene in mouse MigA9 cells by ingenuity pathway analysis; assay type: functional, cell-based
MigA9 [31] = experiment: Upregulation of ID1 gene in mouse MigA9 cells by ingenuity pathway analysis; assay type: functional, cell-based
MigA9 [32] = experiment: Downregulation of KLF2 gene in mouse MigA9 cells by ingenuity pathway analysis; assay type: functional, cell-based
MigA9 [33] = experiment: Upregulation of KLF3 gene in mouse MigA9 cells by ingenuity pathway analysis; assay type: functional, cell-based
MigA9 [34] = experiment: Upregulation of Ncoa6 gene in mouse MigA9 cells by ingenuity pathway analysis; assay type: functional, cell-based
MigA9 [35] = experiment: Downregulation of onecut1 gene in mouse MigA9 cells by ingenuity pathway analysis; assay type: functional, cell-based
MigA9 [36] = experiment: Downregulation of pim1 gene in mouse MigA9 cells by ingenuity pathway analysis; assay type: functional, cell-based
MigA9 [37] = experiment: Upregulation of rgs10 gene in mouse MigA9 cells by ingenuity pathway analysis; assay type: functional, cell-based
MigA9 [38] = experiment: Upregulation of tac4 gene in mouse MigA9 cells by ingenuity pathway analysis; assay type: functional, cell-based
MigA9 [39] = experiment: Upregulation of timp2 gene in mouse MigA9 cells by ingenuity pathway analysis; assay type: functional, cell-based
MigA9 [40] = experiment: Downregulation of CTSG gene in mouse MigA9 cells by ingenuity pathway analysis; assay type: functional, cell-based
MigA9 [41] = experiment: Upregulation of CEACAM1 gene in mouse MigA9 cells by ingenuity pathway analysis; assay type: functional, cell-based
[42] = Stability in mouse MigA9 cells assessed as visibility of intrinsic fluorescence measured after 10 days by fluorescence microscopy; assay type: ADME, cell-based; details: miga9, 240 h, time 10 day

Chain of Homeobox protein Hox-A9 (Mus musculus) (P09631 whole entry, the tested form may be a part): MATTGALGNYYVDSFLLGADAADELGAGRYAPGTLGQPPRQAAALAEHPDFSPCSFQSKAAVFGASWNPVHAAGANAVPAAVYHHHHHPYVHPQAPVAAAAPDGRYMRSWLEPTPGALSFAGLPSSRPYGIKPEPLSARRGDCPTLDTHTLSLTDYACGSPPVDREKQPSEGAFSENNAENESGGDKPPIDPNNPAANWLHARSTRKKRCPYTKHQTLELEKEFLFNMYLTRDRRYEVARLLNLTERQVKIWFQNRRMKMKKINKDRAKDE

## N=C(N)c1cccc(-c2ccc(-c3nc4cc(C(=N)N)ccc4[nH]3)cc2)c1
[1]
  IC50: 14.1 µM
HOXA9 DNA binding site [2]
  Kd: 0.0055 µM
[3]
  Activity: 3.87%
[4]
  Activity: 5.17%
[5]
  Activity: 1.65%
K562
  Activity: 100%
HOXA9 DNA binding site [6]
  ΔTm: 7 °C
HOXA9 DNA binding site [7]
  ΔTm: > 10 °C
[8]
  ΔTm: 4 °C
[9]
  ΔTm: 4 °C

## N=C(N)c1ccc(-c2ccc(-c3nc4ccc(C(=N)N)cc4[nH]3)s2)cc1
[10]
  Drug transport: Active
[3]
  Activity: 13.5%
[4]
  Activity: 21.07%
[5]
  Activity: 12%
[11]
  inhibition: Active
[12]
  inhibition: Active
[13]
  inhibition: Active
[14]
  inhibition: Active
[15]
  inhibition: Active
[16]
  inhibition: Active
MigA9 [17]
  Activity: Active
MigA9 [18]
  Activity: Active
MigA9 [19]
  Activity: Active
MigA9 [20]
  Activity: Active
MigA9 [21]
  Activity: Active
MigA9 [22]
  Activity: Active
MigA9 [23]
  Activity: Active
MigA9 [24]
  Activity: Active
MigA9 [25]
  Activity: Active
MigA9 [26]
  Activity: Active
MigA9 [27]
  Activity: Active
MigA9 [28]
  Activity: Active
MigA9 [29]
  Activity: Active
MigA9 [30]
  Activity: Active
MigA9 [31]
  Activity: Active
MigA9 [32]
  Activity: Active
MigA9 [33]
  Activity: Active
MigA9 [34]
  Activity: Active
MigA9 [35]
  Activity: Active
MigA9 [36]
  Activity: Active
MigA9 [37]
  Activity: Active
MigA9 [38]
  Activity: Active
MigA9 [39]
  Activity: Active
MigA9 [40]
  Activity: Active
MigA9 [41]
  Activity: Active
K562
  Activity: 100%
[42]
  Stabilty: Stable
HOXA9 DNA binding site [6]
  ΔTm: 7 °C
HOXA9 DNA binding site [7]
  ΔTm: > 10 °C
[8]
  ΔTm: 4 °C
[9]
  ΔTm: 4 °C
